Laboratory results: publication PMC10502144, “Anti-methicillin-resistant Staphylococcus aureus activity and safety evaluation of 14-O-[(5-ethoxycarbonyl-4,6-dimethylpyrimidine-2-yl) thioacetyl] mutilin (EDT)” (Scientific Reports, 2023)
Values after ≈ are worked out from the molar mass of the structure shown.

System: clinical isolates of MRSA
Assay: MIC by broth serial-dilution against 48 clinical isolates of MRSA
Type: cell-based, methicillin-resistant Staphylococcus aureus
Description: The tests against 48 clinical isolates of MRSA from dairy farms in 4 different provinces in China[37] were conducted in triplicate, using broth serial-dilution method in 96-well plates according to CLSI reference methods. Briefly, EDT and tiamulin fumarate used as referent drug were dissolved in 25% dimethyl sulfoxide (DMSO) to a solution with concentration of 64 μg/mL. The obtained 100 μL solutions were then added into the first column of the 96-well plate, and diluted to the tenth well with serial twofold dilutions. The last two wells were used as positive controls. The 100 μL bacterial suspension was diluted in MHB to give a final organism density of to 10^5 ~ 10^6 colony-forming unit (CFU) per 1 mL and added to all the wells, followed by incubating at 37 °C for 24 h. […] The results were expressed as an average of the MICs obtained from three independent experiments.

C=CC1(C)CC(OC(=O)CSc2nc(C)c(C(=O)OCC)c(C)n2)C2(C)C(C)CCC3(CCC(=O)C32)C(C)C1O (centres unmarked) [EDT, 14-O-[(5-ethoxycarbonyl-4,6-dimethylpyrimidine-2-yl)thioacetyl] mutilin]
inhibition at 0.0625 µg/mL (Staphylococcus aureus, MRSA, read-out: strains inhibited): 97.9% | MIC (Staphylococcus aureus, MRSA, strain CX1): 0.0313 µg/mL (≈ 0.0546 µM) | MIC (Staphylococcus aureus, MRSA, strain CX2): 0.0313 µg/mL (≈ 0.0546 µM) | MIC (Staphylococcus aureus, MRSA, strain CX5): 0.0313 µg/mL (≈ 0.0546 µM) | MIC (Staphylococcus aureus, MRSA, strain CX6): 0.0313 µg/mL (≈ 0.0546 µM) | MIC (Staphylococcus aureus, MRSA, strain CX7): 0.0625 µg/mL (≈ 0.109 µM) | MIC (Staphylococcus aureus, MRSA, strain CX9): 0.125 µg/mL (≈ 0.218 µM) | MIC (Staphylococcus aureus, MRSA, strain HG1): 0.0313 µg/mL (≈ 0.0546 µM) | MIC (Staphylococcus aureus, MRSA, strain HG2): 0.0313 µg/mL (≈ 0.0546 µM) | MIC (Staphylococcus aureus, MRSA, strain HG3): 0.0313 µg/mL (≈ 0.0546 µM) | MIC (Staphylococcus aureus, MRSA, strain HG4): 0.0313 µg/mL (≈ 0.0546 µM) | MIC (Staphylococcus aureus, MRSA, strain HG5): 0.0313 µg/mL (≈ 0.0546 µM) | MIC (Staphylococcus aureus, MRSA, strain HG6): 0.0313 µg/mL (≈ 0.0546 µM) | MIC (Staphylococcus aureus, MRSA, strain HG7): 0.0625 µg/mL (≈ 0.109 µM) | MIC (Staphylococcus aureus, MRSA, strain QY4): 0.0313 µg/mL (≈ 0.0546 µM) | MIC (Staphylococcus aureus, MRSA, strain QY5): 0.0313 µg/mL (≈ 0.0546 µM) | MIC (Staphylococcus aureus, MRSA, strain QY6): 0.0625 µg/mL (≈ 0.109 µM) | MIC (Staphylococcus aureus, MRSA, strain QY8): 0.0313 µg/mL (≈ 0.0546 µM) | MIC (Staphylococcus aureus, MRSA, strain QY10): 0.0625 µg/mL (≈ 0.109 µM) | MIC (Staphylococcus aureus, MRSA, strain SH3): 0.0313 µg/mL (≈ 0.0546 µM) | MIC (Staphylococcus aureus, MRSA, strain SH4): 0.0313 µg/mL (≈ 0.0546 µM) | MIC (Staphylococcus aureus, MRSA, strain SH6): 0.0313 µg/mL (≈ 0.0546 µM) | MIC (Staphylococcus aureus, MRSA, strain SH7): 0.0625 µg/mL (≈ 0.109 µM) | MIC (Staphylococcus aureus, MRSA, strain SH8): 0.0313 µg/mL (≈ 0.0546 µM) | MIC (Staphylococcus aureus, MRSA, strain SH9): 0.0313 µg/mL (≈ 0.0546 µM) | MIC (Staphylococcus aureus, MRSA, strain SH10): 0.0313 µg/mL (≈ 0.0546 µM) | MIC (Staphylococcus aureus, MRSA, strain SH11): 0.0313 µg/mL (≈ 0.0546 µM) | MIC (Staphylococcus aureus, MRSA, strain SH12): 0.0313 µg/mL (≈ 0.0546 µM) | MIC (Staphylococcus aureus, MRSA, strain SH13): 0.0313 µg/mL (≈ 0.0546 µM) | MIC (Staphylococcus aureus, MRSA, strain SH14): 0.0313 µg/mL (≈ 0.0546 µM) | MIC (Staphylococcus aureus, MRSA, strain SH15): 0.0313 µg/mL (≈ 0.0546 µM) | MIC (Staphylococcus aureus, MRSA, strain SX5): 0.0313 µg/mL (≈ 0.0546 µM) | MIC (Staphylococcus aureus, MRSA, strain SX6): 0.0313 µg/mL (≈ 0.0546 µM) | MIC (Staphylococcus aureus, MRSA, strain SX7): 0.0313 µg/mL (≈ 0.0546 µM) | MIC (Staphylococcus aureus, MRSA, strain SX8): 0.0313 µg/mL (≈ 0.0546 µM) | MIC (Staphylococcus aureus, MRSA, strain SX9): 0.0313 µg/mL (≈ 0.0546 µM) | MIC (Staphylococcus aureus, MRSA, strain SX10): 0.0313 µg/mL (≈ 0.0546 µM) | MIC (Staphylococcus aureus, MRSA, strain SX16): 0.0625 µg/mL (≈ 0.109 µM) | MIC (Staphylococcus aureus, MRSA, strain SX17): 0.0313 µg/mL (≈ 0.0546 µM) | MIC (Staphylococcus aureus, MRSA, strain SX18): 0.0313 µg/mL (≈ 0.0546 µM) | MIC (Staphylococcus aureus, MRSA, strain ZY1): 0.0313 µg/mL (≈ 0.0546 µM) | MIC (Staphylococcus aureus, MRSA, strain ZY2): 0.0313 µg/mL (≈ 0.0546 µM) | MIC (Staphylococcus aureus, MRSA, strain ZY3): 0.0313 µg/mL (≈ 0.0546 µM) | MIC (Staphylococcus aureus, MRSA, strain ZY4): 0.0313 µg/mL (≈ 0.0546 µM) | MIC (Staphylococcus aureus, MRSA, strain ZY5): 0.0313 µg/mL (≈ 0.0546 µM) | MIC (Staphylococcus aureus, MRSA, strain ZY6): 0.0313 µg/mL (≈ 0.0546 µM) | MIC (Staphylococcus aureus, MRSA, strain ZY7): 0.0313 µg/mL (≈ 0.0546 µM) | MIC (Staphylococcus aureus, MRSA, strain ZY8): 0.0625 µg/mL (≈ 0.109 µM) | MIC (Staphylococcus aureus, MRSA, strain ZY9): 0.0313 µg/mL (≈ 0.0546 µM) | MIC values against 48 strains (range over 48 clinical isolates of MRSA): 0.0313 to 0.125 µg/mL
